# Data reported in BindingDB's records for doi:10.1021/jm00082a007 (J. Uriach & Cía., 1992).
# Molecular target: Platelet-activating factor receptor (Oryctolagus cuniculus)
# Assay: In vitro inhibition of PAF induced aggregation of rabbit platelets.
row,IC50,SMILES
1,40 nM,CCCCCCCCCCCCCCCCCCCCOC1CC(COC(=O)N(Cc2cccc[n+]2CC)C(C)=O)CO1 (stereo not given)
2,25 nM,C=CCCCCCCOCCCCCCOC1CC(COC(=O)N(Cc2cccc[n+]2CC)C(C)=O)CO1 (stereo not given)
3,2.1 nM,CC[n+]1ccccc1CN(C(C)=O)C(=O)OCC1COC(OCCCCCCCCCCCCCCCCOC)C1 (stereo not given)
4,15 nM,CC[n+]1ccccc1CN(C(C)=O)C(=O)OCC1COC(OCCCCCCOCCCCCc2ccccc2)C1 (stereo not given)
5,51 nM,CC[n+]1ccccc1CN(C(C)=O)C(=O)OCC1COC(OCCCCCCOCCCc2ccccc2)C1 (stereo not given)
6,15 nM,CC[n+]1ccccc1CN(C(C)=O)C(=O)OCC1COC(OCCCCCCOCc2ccc(-c3ccccc3)cc2)C1 (stereo not given)
7,9.7 nM,CCCCCCCCCCCCCCCCOC1CC(COC(=O)N(Cc2cccc[n+]2CC)C(C)=O)CO1 (stereo not given)
8,260 nM,CC[n+]1ccccc1CN(C(C)=O)C(=O)OCC1COC(OCCC(c2ccccc2)c2ccccc2)C1 (stereo not given)
9,190 nM,CC[n+]1ccccc1CN(C(C)=O)C(=O)OCC1COC(OCCCc2ccccc2)C1 (stereo not given)
10,2800 nM,CCOC1CC(COC(=O)N(Cc2cccc[n+]2CC)C(C)=O)CO1 (stereo not given)
